23 compounds from ChEMBL document CHEMBL3769377, “A synthesis, in silico, in vitro and in vivo study of thieno[2,3-b]pyridine anticancer analogues” (Medchemcomm, 2015) can be followed below.

Activity calls are given as the source filed them. The calls are words filed in the database; no cut-off is given here.

Test [1] in a line: Growth inhibition of human NCI60 cells assessed as cell growth at 10 uM after 48 hrs by sulforhodamine B assay relative to control. To be noted: NCI60, 48 h, read-out: Activity. It is filed as functional.
Test [2] has as its system MDA-MB-468. Briefly: Cytotoxicity against human MDA-MB-468 cells after 48 hrs by sulforhodamine B assay. The note with it: MDA-MB-468, 48 h; for CC50: read-out: LC50 (the source's name). It is filed as functional. Background: The SRB assay estimates cell density from bound dye.
The subject of test [3] is MDA-MB-435. Nature of the test: Cytotoxicity against human MDA-MB-435 cells after 48 hrs by sulforhodamine B assay. To be noted: MDA-MB-435, 48 h; for CC50: read-out: LC50 (the source's name). It is filed as functional.
Test [4] can be described thus: Cytotoxicity against human SF539 cells after 48 hrs by sulforhodamine B assay. It is filed as functional. To be noted: SF-539, 48 h; for CC50: read-out: LC50 (the source's name).
Test [5] deals with 786-0. Briefly: Cytotoxicity against human 786-0 cells after 48 hrs by sulforhodamine B assay. To be noted: 786-0, 48 h; for CC50: read-out: LC50 (the source's name). It is filed as functional.
Test [6] has as its system MDA-MB-468. Briefly: Cytotoxicity against human MDA-MB-468 cells assessed as cell death at 100 uM after 48 hrs by sulforhodamine B assay. It is filed as functional, cell-based.
Test [7] deals with MDA-MB-435. Nature of the test: Cytotoxicity against human MDA-MB-435 cells assessed as cell death at 100 uM after 48 hrs by sulforhodamine B assay. It is filed as functional, cell-based.
The subject of test [8] is 786-0. Briefly: Cytotoxicity against human 786-0 cells assessed as cell death at 100 uM after 48 hrs by sulforhodamine B assay. It is filed as functional, cell-based.
The target in test [9] is Tyrosyl-DNA phosphodiesterase 1 (Homo sapiens, UniProt Q9NUW8). Briefly: Inhibition of recombinant human N-terminal His-tagged TDP1 (1824 bp) expressed in Escherichia coli BL21(DE3) cells using 5'-(5,6 FAM-AAC GTC AGG GTC TTC C-BHQ1)-3' as substrate measured every 1 min by RT-PCR method.
Chain of Tyrosyl-DNA phosphodiesterase 1 (Q9NUW8 whole entry): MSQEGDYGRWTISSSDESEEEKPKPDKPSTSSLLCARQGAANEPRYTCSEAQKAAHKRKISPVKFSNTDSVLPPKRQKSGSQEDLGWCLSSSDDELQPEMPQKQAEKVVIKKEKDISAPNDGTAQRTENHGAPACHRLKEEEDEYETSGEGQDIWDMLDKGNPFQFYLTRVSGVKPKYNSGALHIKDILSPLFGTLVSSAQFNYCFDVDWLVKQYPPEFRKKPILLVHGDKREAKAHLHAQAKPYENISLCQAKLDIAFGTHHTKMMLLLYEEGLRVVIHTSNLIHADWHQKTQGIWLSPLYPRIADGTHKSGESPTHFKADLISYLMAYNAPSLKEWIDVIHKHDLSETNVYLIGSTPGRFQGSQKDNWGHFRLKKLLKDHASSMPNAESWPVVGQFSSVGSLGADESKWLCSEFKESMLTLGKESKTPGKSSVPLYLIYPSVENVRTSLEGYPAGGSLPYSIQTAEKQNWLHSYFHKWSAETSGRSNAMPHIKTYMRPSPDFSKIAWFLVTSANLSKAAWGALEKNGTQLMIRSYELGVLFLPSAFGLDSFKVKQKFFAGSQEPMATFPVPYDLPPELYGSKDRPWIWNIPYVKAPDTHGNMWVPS
The test system of test [10] is SF-539. Nature of the test: Cytotoxicity against human SF539 cells assessed as assessed as cell death at 100 uM after 48 hrs by sulforhodamine B assay. It is filed as functional, cell-based.
Test [11] concerns SF-539. Briefly: Cytotoxicity against human SF539 cells assessed as growth inhibition at 100 uM after 48 hrs by sulforhodamine B assay. It is filed as functional, cell-based.

As for `Nc1c(C(=O)Nc2ccccc2F)sc2nc3c(cc12)CCCC3`, the growth at 10 µM in [1] came to 34.5%.
What is called GI50 is the concentration at which growth is held to half of that of the control. Low values mean more potent growth inhibition, high ones less potent growth inhibition. Consider `Nc1c(C(=O)Nc2ccccc2)sc2nc3c(cc12)CCCCCC3`, for which the GI50 was 291 nM in the test on MDA-MB-468 [2], 52 nM in the test on MDA-MB-435 [3], 217 nM in test [4] and 354 nM with 786-0 [5]. Moreover, the CC50 in the test on MDA-MB-435 [3] was 897 nM; in test [4] it was 3200 nM; with 786-0 [5] it was 10200 nM. Besides, in test [1], the growth at 10 µM is 12.5%. The outcome with MDA-MB-468 [6] was inactive.
`Nc1c(C(=O)Nc2ccccc2)sc2nc3c(cc12)CCCCC3`: the GI50 was determined as 254 nM in the test on MDA-MB-468 [2], 205 nM with MDA-MB-435 [3], 307 nM in [4] and 465 nM in the test on 786-0 [5]. Moreover, the result with MDA-MB-435 [7], in the test on MDA-MB-468 [6] and in the test on 786-0 [8] was inactive. For the same compound, the CC50 in [4] is 94300 nM. In addition, in test [1], the growth at 10 µM turned out to be 14.7%.
For orientation: IC50 means the point on the concentration scale where inhibition reaches its midpoint. As for `Nc1c(C(=O)Nc2ccccc2Cl)sc2nc3c(cc12)CCCCCC3`, the GI50 in the test with MDA-MB-468 [2] was 2250 nM; in the test with MDA-MB-435 [3], 275 nM; in test [4] it was 2650 nM; in the test on 786-0 [5] it was 1750 nM. Moreover, the results for the CC50 (with MDA-MB-435 [3]; in test [4]; in the test on 786-0 [5]) were 20900 nM, 46600 nM and 6120 nM, respectively. Further, the growth at 10 µM in [1] worked out at 29%. In addition, the concentration for half-maximal inhibition (IC50) in test [9] is 1000 nM. Also, in the test on MDA-MB-468 [6], the outcome was inactive.
As for `Nc1c(C(=O)Nc2c(Cl)cccc2Cl)sc2nc3c(cc12)CCCCC3`, in [1], the growth at 10 µM was found to be 52.1%.
With `COc1cccc(NC(=O)c2sc3nc4c(cc3c2N)CCCC4)c1`, the GI50 was found to be 239 nM with MDA-MB-468 [2], 150 nM in the test on MDA-MB-435 [3], 368 nM in test [4] and 420 nM in the test with 786-0 [5]. In addition, in the test on MDA-MB-435 [3], the CC50 is 13500 nM. Moreover, the outcome with SF-539 [10], in the test on MDA-MB-468 [6] and in the test with 786-0 [8] was inactive. The growth at 10 µM in test [1] was 28.2%.
Regarding `CCC1CCc2nc3sc(C(=O)Nc4ccccc4F)c(N)c3cc2C1` (racemic), the GI50 with MDA-MB-468 [2] is 347 nM; with MDA-MB-435 [3], 133 nM; in test [4], 10000 nM; in the test on 786-0 [5] it was 41700 nM. The outcome in the test on MDA-MB-435 [7], with SF-539 [10], in the test on MDA-MB-468 [6] and in the test with 786-0 [8] was inactive. For the same compound, the growth at 10 µM in test [1] was 61.1%.
With `Nc1c(C(=O)Nc2ccccc2)sc2nc3c(cc12)CCCC3`, the GI50 with MDA-MB-468 [2] stood at 303 nM; in the test on MDA-MB-435 [3], 172 nM; in [4], 416 nM; with 786-0 [5], 656 nM. The outcome in the test with MDA-MB-435 [7], with SF-539 [10], in the test with MDA-MB-468 [6] and in the test with 786-0 [8] was inactive. Further, in test [1], the growth at 10 µM turned out to be 30.3%.
On to `Nc1c(C(=O)Nc2cccc(C(F)(F)F)c2)sc2nc3c(cc12)CCCCC3`, for which the GI50 in the test on MDA-MB-468 [2] came out at 394 nM; in the test with MDA-MB-435 [3], 2530 nM; in test [4], 1940 nM; in the test on 786-0 [5] it was 1580 nM. Besides, the CC50 came to 31000 nM in the test with MDA-MB-468 [2], 11300 nM in test [4] and 6240 nM in the test on 786-0 [5]. Further, in the test with MDA-MB-435 [7], the result was inactive. Further, in test [1], the growth at 10 µM was 10%.
In the case of `Nc1c(C(=O)Nc2ccccc2F)sc2nc3c(cc12)CCC3`, the growth at 10 µM in [1] amounted to 102%.
`Nc1c(C(=O)Nc2cccc(C(F)(F)F)c2)sc2nc3c(cc12)CCCCCC3`: the GI50 was 798 nM with MDA-MB-468 [2], 2100 nM with MDA-MB-435 [3], 1710 nM in test [4] and 1600 nM in the test on 786-0 [5]. Besides, the CC50 in the test with MDA-MB-468 [2] was 15400 nM; in the test on MDA-MB-435 [3], 59200 nM; in [4], 6650 nM; in the test with 786-0 [5], 6070 nM. In addition, the growth at 10 µM in test [1] came out at 7%. In [9], the IC50 stood at 500 nM.
With `CCC1CCc2nc3sc(C(=O)Nc4cccc(C)c4)c(N)c3cc2C1` (racemic), the growth at 10 µM in test [1] is 69.7%.
With `CCC1CCc2nc3sc(C(=O)Nc4ccccc4C)c(N)c3cc2C1` (racemic), the GI50 is 244 nM in the test with MDA-MB-468 [2], 104 nM in the test with MDA-MB-435 [3], 398 nM in [4] and 371 nM with 786-0 [5]. Besides, the outcome in the test with SF-539 [10], with MDA-MB-468 [6] and in the test on 786-0 [8] was inactive. Further, in test [1], the growth at 10 µM is 36.5%.
`Nc1c(C(=O)Nc2cccc(C(F)(F)F)c2)sc2nc3c(cc12)CCCC3`: the growth at 10 µM in [1] amounted to 88.1%.
For `Nc1c(C(=O)Nc2cccc(C(F)(F)F)c2)sc2nc3c(cc12)C(=O)CC3`, the IC50 in test [9] was 1700 nM.
With `Cc1cccc(NC(=O)c2sc3nc4c(cc3c2N)CCC4)c1C`, the 50% growth inhibitory concentration (GI50) with MDA-MB-468 [2] is 197 nM; in the test on MDA-MB-435 [3], 52 nM; in test [4], 241 nM; in the test with 786-0 [5], 367 nM. Moreover, the CC50 turned out to be 71200 nM with MDA-MB-468 [2], 22700 nM in the test with MDA-MB-435 [3], 72400 nM in test [4] and 14300 nM in the test with 786-0 [5]. The growth at 10 µM in test [1] was 23.6%.
Regarding `Nc1c(C(=O)Nc2ccccc2C(F)(F)F)sc2nc3c(cc12)CCCC3`, the growth at 10 µM in test [1] came to 90.6%.
On to `Nc1c(C(=O)Nc2ccccc2C(F)(F)F)sc2nc3c(cc12)CCCCCC3`, for which the growth at 10 µM in test [1] was found to be 80.2%.
Take `CCC1CCc2nc3sc(C(=O)Nc4cccc(F)c4)c(N)c3cc2C1` (racemic): the concentration for 50% growth inhibition (GI50) in the test with MDA-MB-468 [2] amounted to 471 nM; in the test on MDA-MB-435 [3], 110 nM; in the test on 786-0 [5], 701 nM. In addition, the result with MDA-MB-435 [7], with SF-539 [10], in the test with MDA-MB-468 [6] and with 786-0 [8] was inactive. Also, the “growth inhibition (GI)” value in the test on SF-539 [11] is “inactive”. Also, the growth at 10 µM in test [1] amounted to 60.3%.
Consider `Nc1c(C(=O)Nc2ccccc2)sc2nc3c(cc12)CCC3`, for which the growth at 10 µM in [1] was 79.5%.
As to `Nc1c(C(=O)Nc2ccccc2Cl)sc2nc3c(cc12)CCCC3`, the growth at 10 µM in test [1] was found to be 99.4%.
As for `Nc1c(C(=O)Nc2ccccc2C(F)(F)F)sc2nc3c(cc12)CCC3`, the IC50 in test [9] is more than 15000 nM.
`Cc1cccc(NC(=O)c2sc3nc4c(cc3c2N)CCCC4)c1`: the GI50 in the test on MDA-MB-468 [2] was determined as 1750 nM; in the test on MDA-MB-435 [3] it was 305 nM; in [4], 4740 nM; with 786-0 [5], 4130 nM. Further, the outcome with MDA-MB-435 [7], in the test on SF-539 [10], in the test on MDA-MB-468 [6] and in the test on 786-0 [8] was inactive. For the same compound, the growth at 10 µM in test [1] was 39.9%.
